In patent publication US20250170101A1, “MONOACYLGLYCEROL LIPASE INHIBITORS AND USE THEREOF FOR THE TREATMENT AND MANAGEMENT OF PAIN AND RELATED CONDITIONS” (Psy Therapeutics, Inc., priority 2021, published 2025) one finds concentration and Kp data, which are given here for 1 molecule.

Where two headings read alike, the source gives them in different places.

The nature of this series: Plasma and brain concentrations after single intraperitoneal administration, Examples 23 and 24. As to conditions: male, C57BL/6, mouse, IP 20 mg/kg. The class given is in vivo, male C57BL/6 mice. As for the experimental part:
This experiment was performed to determine plasma pharmacokinetics and estimate 2-AG levels in male C57BL/6 mice brain following a single intraperitoneal administration of Compound-74 (Dose: 5, 15, 50 and 150 mg/kg). The experiment was repeated at 150 mg/kg on 3 separate test dates to obtain the data shown in FIG. 1A (plasma and brain concentration of Compound 74 30 minutes after IP injection), and on the first and third test dates to obtain the data shown in FIG. 1B (brain concentration of 2-AG30 minutes after IP injection of Compound 74). • Compound 74, Molecular Wt.: 405.46 (Freebase), % Purity: Considered 100%. • Formulation: DMSO • Dose: 5, 15, 50 and 150 mg/kg • Dose volume: 2 mL/kg • Feeding regimen: freely fed • Groups:
Study Design: A total of thirty male mice were used into the study and divided in to five groups with six mice in each group (n=6 mice/group/treatment design). Animals in Group 1 to Group 4 were administered intraperitoneally with Compound 74 solution formulation at 5, 15, 50 and 150 mg/kg dose, respectively. Animals in Group 5 were administered intraperitoneally with vehicle at 2 mL/kg dose. Blood and brain samples were collected at 0.5 h post dose. Mice were euthanized by cervical dislocation and brain samples were dissected rapidly and snap frozen in liquid nitrogen, weighed and homogenized in 2 mL of acetonitrile containing 2-AGd5. Blood samples were centrifuged at 4000 rpm for 10 minutes at 4° C. Plasma was harvested and separated in pre-labeled tubes. All samples were stored below −70° C. until bioanalysis.
Analysis: Brain samples were processed for 2-AG estimation. 2-AG levels were the detected values. Plasma concentrations were determined by fit for purpose LC-MS/MS method. LLOQ: 5.09 ng/mL (Plasma and brain)
This experiment was performed to determine plasma pharmacokinetics and estimate 2-AG levels in male C57BL/6 mice brain following a single intraperitoneal administration of Compound-473 (Dose: 20 mg/kg). • Compound 473, Molecular Wt.: 463.41 (Freebase), % Purity: >98%. • Formulation: DMSO • Dose: 20 mg/kg • Dose volume: 10 mL/kg • Feeding regimen: Food and water ad libitum • Groups:
Study Design: A total of twelve C57BL/6 male mice were used in this study. Six animals were administered intraperitoneally with solution formulation of PSY-05-00473-002 at 20 mg/kg dose. Six animals were administered vehicle (5% NMP, 5% Solutol HS15 and 90% Normal saline) intraperitoneally at 10 mL/kg dose volume. Blood samples (approximately 60 μL) were collected under light isoflurane anesthesia from a set of six mice at 0.5 h. Plasma was harvested by centrifugation of blood and stored at −70±10° C. until analysis. After blood collection, mice were euthanized by cervical dislocation and brain samples were dissected rapidly and snapped frozen in liquid nitrogen and stored at −80. To homogenize, removed brain samples from the freezer, were divided into two equal hemispheres and weighed while still in frozen condition, and begun homogenization/extraction procedure without allowing the brain samples to thaw. One part is used for PK estimation and the other part is used for 2-AG estimation.
Analysis: For PK estimation, brain samples were homogenized in 2 volumes of PBS of brain weight. Total homogenate volume was three times of the brain weight. For 2-AG estimation, the frozen brain samples were homogenized in 2 mL acetonitrile containing 2-AGd5 (8.88 nmoles) will be incubated overnight at −20° C. to precipitate proteins. Blood samples were centrifuged at 10000 rpm for 10 minutes at 4° C. All samples were stored below −70° C. until bioanalysis. Plasma and brain homogenate samples were quantified by fit-for-purpose LC-MS/MS method (LLOQ: 1.02 ng/mL for plasma and 2.03 ng/mL for brain).

For `O=C(c1cc(O)ccc1F)N1CC2(CC(n3cc(C(F)(F)F)c(-c4ccccc4F)n3)C2)C1` (single isomer, unassigned) [Compound 473, (2-fluoro-5-hydroxyphenyl){6-[3-(o-fluorophenyl)-4-(trifluoromethyl)-1-pyrazolyl]-2-aza-2-spiro[3.3]heptyl}methanone], the concentration at 0.5 h (brain, read-out: Brain Concentration (ng/g), Mean) is 2630 ng/g and the concentration at 0.5 h (plasma, read-out: Plasma Concentration (ng/mL), Mean) is 1820 ng/mL. Besides, under “brain/plasma, read-out: Brain/Plasma Ratio (kp), Mean”, the Kp at 0.5 h turned out to be 1.44.
